# Measurements as given in ChEMBL document CHEMBL1122882, “3,4-O-diacetylisoproterenol. Preparation, structure proof, and beta-receptor effect” (1985).
# Species: Rattus norvegicus
# Assay: Evaluated for the efficacy in stimulating cAMP synthesis by beta-1-adrenoceptor in rat cerebral cortex.
# Format: functional
row,Compound,Efficacy
1,CC(=O)Oc1ccc(C(Cl)CNC(C)C)cc1OC(C)=O (configuration not stated),1
2,CC(=O)Oc1ccc(C(O)CNC(C)C)cc1OC(C)=O (configuration not stated) [DIACETYLISOPROTERENOL],1
